Some results are limits rather than exact numbers.

Take `CC#CCOc1ccc(SC(C(=O)NO)C2CCCCC2)cc1` (configuration not stated): the melting point (as a rule, the temperature of the solid-liquid transition) turned out to be 163 °C. The figure for `Cc1nccn1-c1nc(-c2ccc(Cl)cc2)c(CCCC(=O)NCCCl)o1` is 131 to 132 °C; for `COC(=O)c1ccc2occ(-c3ccc(SC)cc3)c2c1` it is 95 to 96 °C; for `Cc1ccc2[nH]c3c(cc(-c4ccccc4Nc4ccccc4)c(=O)n3C)c2c1` it is 188 to 190 °C. Compound `NC(=O)N1C(=O)C(C(=O)c2sccc2F)c2cc(Cl)ccc21` (configuration not stated) had a melting point of 235 to 240 °C.

Consider `CN(C)C(=O)C=Cc1ccc(SC2Cc3cc(O)ccc3C3CCC4(C)C(O)CCC4C23)cc1` (configuration not stated), for which the melting point was 152 to 155 °C. The figure for `COc1ccc(N=C(N)N(C)C)c(N2CCOCC2)c1` is 135 °C; for `C#Cc1cn(-c2c(Cl)cc(OC(F)(F)F)cc2Cl)nc1C#N` it is 95.2 to 96 °C. In turn, `CC1Cc2cc3c(cc2C(c2ccc([N+](=O)[O-])cc2)=NN1c1n[nH]c(=O)s1)OCO3` (configuration not stated) returned a melting point of 288 °C. The figure for `O=C(Nc1c(C(O)(C(F)(F)F)C(F)(F)F)ccc2ccccc12)C1CC1` is 163 to 165 °C; for `Cc1cc(C#CC=O)nc(Oc2cc(C(F)(F)F)nn2C)c1` it is 73 °C; for `Cc1cc(Oc2ccccc2)c(S(C)(=O)=O)cc1C(=O)O` it is 195 °C. The figure for `Nc1ncc(CCCc2cccc3ccccc23)c(N)n1` is 179 to 181 °C; for `CC(C)(CCCCOCCCCc1ccc(N2CCOCC2)cc1)NCC(O)c1ccc(O)c(NS(C)(=O)=O)c1` (configuration not stated) it is 165 to 167 °C; for `O=c1[nH]ncc2c1c(O)nc1ccccc12` it is more than 350 °C. For `Cc1cc(C)c2ccc(NC(=O)Nc3ccccc3CCc3cc(C(C)(C)C)c(O)c(C(C)(C)C)c3)nc2n1` the value was 235 to 237 °C; for `CC(C)c1cn2ccccc2c1S(=O)(=O)c1ccc(OCC2CO2)cc1` (configuration not stated), 110 to 111 °C.

The compound `Cc1ccc(C#N)c(N2CCc3ccccc3CC2)n1` registered a melting point of 78.5 to 80.7 °C. The figure for `Cc1ccc(NC(=O)c2ccc3oc(-c4c(C)cc(OCC(=O)N(C)C)cc4C)nc3c2)cc1C` is 207 to 209 °C; for `O=C(Nc1ccccn1)C(CC1CCCC1)c1ccc([N+](=O)[O-])cc1` (configuration not stated) it is 110 to 115 °C; for `Cc1cccc(CC(=O)O)c1OCCCc1cn(-c2ccc(C(F)(F)F)cn2)nc1C1CCCCC1` it is 184 to 185 °C. For `NC(=O)Cc1c(Cl)cnc2c(NC(=O)c3c(Cl)cccc3Cl)cccc12` the value was more than 300 °C; for `C=CCOc1cccc2c(=O)cc(N3CCOCC3)oc12`, 134 to 136 °C.

`Cc1cc(Oc2csc(C(F)(F)F)c2)nc(-c2ccc(C(F)(F)F)cc2)n1` had a melting point of 83.5 to 85 °C.

`N#Cc1cnn2cccc2c1Nc1ccccc1` came in with a melting point of 164 °C. The figure for `Oc1ccc(Nc2cc(Cl)ncn2)cc1` is 241 to 244 °C; for `NC(=O)C(OCC1c2ccccc2-c2ccccc21)c1ccc(C(=O)O)cc1` (configuration not stated) it is 232 to 235 °C. Compound `O=c1c2cccnc2n(-c2cccc(Cl)c2)c2ccsc12` registered a melting point of 264 to 267 °C. The figure for `Cc1ccc(C=Cc2ccc(Br)cc2)cc1` is 215 °C; for `CC(=O)Nc1cccc(-c2c(C)c(NC(=O)CC(C)(C)C)c(C)c3c2OCC3c2ccc(C(C)C)cc2)c1` (configuration not stated) it is 247 to 248 °C; for `O=S(CCl)c1ncc(Cl)cn1` (configuration not stated) it is 90 °C. In turn, `O=C1CC(c2ccccc2)(c2cccs2)Oc2ccccc21` (configuration not stated) gave a melting point of 78 to 80 °C.

Compound `CC(=O)N1Cc2c(-c3nc(C4CC4)no3)ncn2-c2ccccc21` had a melting point of 202 °C. Regarding `O=C(O)CCC(O)c1ccc(-c2ccc(F)cc2Cl)cc1` (configuration not stated), the melting point was 78 to 79 °C.

For the compound `COC(=O)C(=O)c1ccc(N(C=O)CCOc2ccc3ccccc3c2)cc1`, the melting point is 103 to 104 °C. Regarding `COCCc1nc2c(N)nc3ccccc3c2n1CCCNS(=O)(=O)c1cccc2c(N(C)C)cccc12`, the melting point was in the range of 210 to 215 °C. For `CCC(C)(C)c1ccc(S(=O)(=O)N2C(=O)C(NCCN3CCOCC3)(c3ccccc3Cl)c3cc(Cl)ccc32)cc1` (configuration not stated) the value was 147 °C. For `COc1ccc2nc(C3(c4ccc(S(N)(=O)=O)cc4)C=C(C(F)F)NN3)sc2c1` (configuration not stated) the value was 211 to 212 °C.

Compound `O=C(O)COc1ccc(CC2SC(=O)NC2=O)cc1` (configuration not stated) returned a melting point of 181 to 183 °C. On to `Clc1nnc(Cl)c2c1CCCC2`, for which the melting point is 148 to 150 °C. The compound `CN1CC(C(=O)c2coc(Cc3ccc(F)cc3)c2)=C(O)C1=O` gave a melting point of 158 to 160 °C.

For the compound `CC(=O)Oc1c(-c2ccc(=O)[nH]n2)cc(Br)c(C)c1Br`, the melting point came to 220 °C. The figure for `O=c1ccn(-c2c(O)c3ccc(Cl)cc3[nH]c2=O)cc1` is 340 °C; for `CCN(CC)CCNc1ccc(C=O)c2sc3ccc(Br)cc3c(=O)c12` it is 145 to 146 °C; for `COc1cc(C(=O)O)c(-c2cc3cc(O)ccc3[nH]2)cc1OC` it is 160 °C. As to `C=CCCCCCCCCC(O)CC(=O)O` (configuration not stated), the melting point fell in the range of 62 to 64 °C. The figure for `CCOCc1nc2c(N)nc3c(c2n1NCCCNC(=O)C(C)C)CCCC3` is 163 to 165 °C. The figure for `Cn1cc(-c2ccccc2)c(=O)c(-c2ccc(Cl)c(Cl)c2)c1` is 166 °C; for `CN1CCN([C@H]2CC[C@@H](N)CC2)C1=O` it is 81 to 87 °C. For `CCCOc1ccc(CCCOc2nn(C)cc2CC(=O)O)c(Oc2ncc(C(F)(F)F)cc2Cl)c1` the value was 95 to 96 °C; for `CCN(CC)CCOc1cccc2c1c1cccc(F)c1n2Cc1ccc(F)cc1`, 59 to 60 °C. `Cc1cc(Cn2cccn2)cc2c1Cc1c(-c3ccsc3)n[nH]c1-2` displayed a melting point of 271 to 274 °C. Compound `CCCCN(CC(O)C(Cc1ccccc1)NC(=O)C(C)CS(C)(=O)=O)S(=O)(=O)c1ccc(OC)cc1` (configuration not stated) came in with a melting point of 87 to 92 °C.

`CCCCc1cc2c(=O)n3cc(C#N)ccc3nc2s1` came in with a melting point of 216 to 217 °C. In turn, `CC(=O)NCc1cccc(-c2csc(N=C(N)N)n2)n1` registered a melting point of 198 to 200 °C. With `CC(C)Oc1cc(NC(=O)CC(CCCl)C(F)(F)F)c(F)cc1Cl` (configuration not stated), the melting point fell in the range of 57 to 63 °C.

As to `COC(=O)CCC#Cc1cc(Cl)ccc1NS(=O)(=O)c1ccc2nc(NC(C)=O)sc2c1`, the melting point amounted to 85 °C. Turning to `CC(=O)Nc1c(C(N)=O)nnn1Cc1ccccc1Cl`, the melting point was 140 to 142 °C. Compound `CCOC(=O)C1(C(=O)N(Cc2ccccc2)Cc2ccccc2)CC(=O)N(Cc2ccccc2)C1` (configuration not stated) displayed a melting point of 112 to 115 °C. As for `CC(C)(CO)NS(=O)(=O)c1cccc(NC(=O)c2cnn3c(C(F)(F)F)cc(-c4ccc(C(F)(F)F)c(Cl)c4)nc23)c1`, the melting point came to 251 °C. For the compound `CC(=O)c1ccc2c(c1)Sc1ccccc1C=C2`, the melting point lay within 82 to 84 °C. Consider `CC1Cc2ccc(Br)cc2C(c2ccc([N+](=O)[O-])cc2)=NN1C(N)=O` (configuration not stated), for which the melting point lay within 193 to 203 °C.

The record behind these values is a melting point compilation (Tetko et al.; mined from patent text by program, amines drawn as free bases though some values may be those of a salt).
